Source: PubChem BioAssay (NCI)
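The compound was tested at five concentrations on cells cultured in 96-well plates, with a 48-hour exposure period. At the TGI there is no net growth.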

Legend:
Assay in all cases: NCI anticancer screen, dose series, 48 h
DMS 273 small cell lung = tested on: DMS 273 small cell lung
DLD-1 colon = tested on: DLD-1 colon
DMS 114 small cell lung = tested on: DMS 114 small cell lung
HOP-18 NSCLC = tested on: HOP-18 NSCLC
SNB-78 CNS = tested on: SNB-78 CNS
KM20L2 colon = tested on: KM20L2 colon

Measured: TGI

CC(NCCS(=O)(=O)O)C(=O)O (stereo unspecified)
> 100 µM: all assays above
